{
  "source": "paper PMC2441954",
  "about": "“Phase I pharmacokinetic and pharmacodynamic study of the prenyl transferase inhibitor AZD3409 in patients with advanced cancer” (British Journal of Cancer, 2008)",
  "key": {"[1]": {"assay": "Plasma pharmacokinetics (LC-MS/MS, noncompartmental) in phase I patients", "type": "in vivo, human", "details": "for Cmax / AUC: human, plasma, oral; for AUC: read-out: AUC0−τ", "protocol": "Pharmacokinetic studies were performed in all patients. Ethylenediaminetetraacetic acid blood samples were collected during the first cycle: on day 1 before the first drug intake and 0.5, 1, 2, 4, 6, 8, 12 and 24 h after administration; on days 3, 8 and 15 before the morning drug intake and 2 h after administration; and on day 22 before the morning drug intake and 0.5, 1, 2, 4, 6, 8, 12 and 24 h after administration. Samples were immediately put on ice and centrifuged at 4°C for 10 min at 1500 g. The resulting plasma was stored at −70°C until analysis. Plasma samples of the last three patients were not measured as the study was stopped before analysis.\nThe total plasma concentrations of AZD3409 ester and AZD3409 acid were determined by LC–MS/MS. The plasma samples were treated with dithiothreitol to reduce any disulphide bonds. The sample pretreatment was based on protein precipitation with acidic acetonitrile. Isotopically labelled analogues were used as internal standards. The method has been validated regarding selectivity, accuracy, precision and stability in human plasma. The lower limit of quantification was 3 ng ml^−1 for both AZD3409 ester and AZD3409 acid, with a 50 μl sample volume.\nThe following PK parameters were determined, either by direct observation or by noncompartmental analysis (WinNonlin, version 5.0.1; Pharsight, Mountain View, CA, USA): the minimal plasma concentration (Cmin), the maximal plasma concentration (Cmax), the area under the curve within one dosing interval (AUC0−τ) and total plasma clearance (Cl/F). Correlations between dose and Cmax levels and between dose and AUC0−τ were analysed on day 1 using the nonparametric Spearman's ρ (Rs) correlation test. Accumulation was tested with an exact Wilcoxon's rank paired signed test. Linear measures mixed effects models were constructed with SAS (SAS Institute Inc., Cary, NC, USA) to determine the effect of the dose on the trough plasma concentrations of both metabolites. The daily dose, time (days), gender and age were considered to be a fixed effect, and the patient variable was considered to be a random effect. Owing to the distribution of the trough plasma concentration log transformation was applied."}, "[2]": {"target": "T1, FTase (Homo sapiens, UniProt P49356)", "T1 construct": "endogenous in cells; host or cells: peripheral blood mononuclear cells (PBMCs) of treated patients, lysed", "assay": "FTase activity in PBMC lysates of patients (lamin B or K-Ras substrate), PK/PD Emax model", "type": "in vivo", "protocol": "Prior to and 2 h after intake on days 1, 2 (only predose), 8 and 22, whole-blood samples of 22.5 ml were collected in heparinised tubes for FTase activity determination in peripheral blood mononuclear cells (PBMCs). Within 30 min, the PBMC fraction was isolated using Accuspin tubes (Sigma). The cell pellet was resuspended in 100 μl lysis buffer (PBS containing 1% (v/v) Triton X-100, 0.5% (w/v) sodium deoxycholate, 0.1% (w/v) sodium dodecylsulphate and 1% (v/v) aprotinin) and stored at −70°C.\nFTase activity was measured by adding 5 μl of PBMC lysate, 5 μl of lysis buffer and 10 μl of water to each well. The lysates were preincubated for 10 min prior to the addition of 20 μl of substrate solution (either lamin B or K-Ras). The reaction was initiated by the addition of 10 μl of radiolabelled farnesylpyrophosphate (fpp). The wells were incubated for 40 min at 37°C. The reaction was stopped by the addition of 100 μl of 1.5 M HCl in ethanol. The wells were stored at 4°C for 1 h and then processed using the Tomtec Harvester 96. The filter plates were dried at 37°C for 15 min, 0.35 μl MicroScint was added to each filter well and the radioactivity was counted. Each lysate was analysed in triplicate. Blanks consisted of the same reaction mixture without the substrate.\nLinear mixed effects models were constructed to determine the effect of time on the enzyme activity levels. In these models, the daily dose, number of applications, time (days), measurement pre- or postdrug intake, gender and age were considered to be a fixed effect, and the patient variable was considered to be a random effect. Owing to the distribution of the response variables, square root variables were applied. Statistical analysis was performed with SAS. To determine the correlation of the dose level and the enzyme inhibition, a baseline was added to the described models.\nPharmacokinetic-pharmacodynamic correlations between the active acid metabolite and decrease in FTase activity were fitted with WinNonlin software. Only patients with a basal FTase activity that was higher than 10 pg fpp per mg protein per min were included in the model. This cutoff value was arbitrary and was chosen based on the available data (lamin B; mean: 28.0, SD: 14.2, median: 27.8, 25% percentile: 19.1 and K-Ras; mean: 29.3, SD: 17.8, median: 25.6, 25% percentile: 16.7). The decision to set a minimum baseline FTase activity implicates that the model can only be used for patients with a minimum FTase activity of 10 pg fpp per mg protein per min."}, "[3]": {"details": "500 mg once daily, day 1, dose 500 (once daily), N=3, mean (SD)"}, "[4]": {"details": "500 mg once daily, day 22, dose 500 (once daily), N=2, absolute values"}, "[5]": {"details": "750 mg b.i.d., day 1, dose 750 b.i.d., N=8, mean (SD)"}, "[6]": {"details": "750 mg b.i.d., day 22, dose 750 b.i.d., N=3, mean (SD)"}, "[7]": {"details": "1000 mg once daily, day 1, dose 1000 (once daily), N=3, mean (SD)"}, "[8]": {"details": "1000 mg once daily, day 22, dose 1000 (once daily), N=3, mean (SD)"}, "[9]": {"details": "1250 mg b.i.d., day 1, dose 1250 b.i.d., N=6, mean (SD)"}, "[10]": {"details": "1250 mg b.i.d., day 22, dose 1250 b.i.d., N=4, mean (SD)"}, "[11]": {"details": "1500 mg b.i.d., day 1, dose 1500 b.i.d., N=2, absolute values"}, "[12]": {"details": "1750 mg b.i.d., day 1, dose 1750 b.i.d., N=4, mean (SD)"}, "[13]": {"details": "1750 mg b.i.d., day 22, dose 1750 b.i.d., N=1"}},
  "note": "Where two headings read alike, the source gives them in different places.",
  "data": [
    {"smiles": "CSCC[C@H](NC(=O)c1cc(NC[C@@H]2C[C@H](S)CN2)ccc1CCc1ccc(F)cc1)C(=O)O", "note": "[AZD3409 acid]", "values": [
      {"measurement": "mean time at which Cmax was reached", "setting": "[1]; cycle 1, plasma", "value": 2.7, "unit": "h"},
      {"measurement": "Spearman correlation (Rs) between dose and AUC", "setting": "[1]; day 1", "value": 0.52},
      {"measurement": "Spearman correlation (Rs) between dose and Cmax", "setting": "[1]; day 1", "value": 0.43},
      {"measurement": "Cl/F", "setting": "[1]; day 22, dose 500 (once daily), N=2, absolute values", "value": "[465–488] l h^−1"},
      {"measurement": "Cl/F", "setting": "[1]; day 22, dose 750 b.i.d., N=3, mean (SD)", "value": "473 (155) l h^−1"},
      {"measurement": "Cl/F", "setting": "[1]; day 22, dose 1000 (once daily), N=3, mean (SD)", "value": "710 (148) l h^−1"},
      {"measurement": "Cl/F", "setting": "[1]; day 22, dose 1250 b.i.d., N=4, mean (SD)", "value": "785 (311) l h^−1"},
      {"measurement": "Cl/F", "setting": "[1]; day 22, dose 1750 b.i.d., N=1", "value": 1706, "unit": "L/h"},
      {"measurement": "Ratio AUC0−τ day 22/day 1", "setting": "[1]; dose 500 (once daily), N=2, absolute values", "value": "[2.07–10.1]"},
      {"measurement": "Ratio AUC0−τ day 22/day 1", "setting": "[1]; dose 750 b.i.d., N=3, mean (SD)", "value": "9.29 (11.2)"},
      {"measurement": "Ratio AUC0−τ day 22/day 1", "setting": "[1]; dose 1000 (once daily), N=3, mean (SD)", "value": "2.10 (1.19)"},
      {"measurement": "Ratio AUC0−τ day 22/day 1", "setting": "[1]; dose 1250 b.i.d., N=4, mean (SD)", "value": "1.95 (1.05)"},
      {"measurement": "Ratio AUC0−τ day 22/day 1", "setting": "[1]; dose 1750 b.i.d., N=1", "value": 1.23},
      {"measurement": "Cmax", "setting": "[1]; [3]", "value": 0.0336, "unit": "µg/mL"},
      {"measurement": "AUC", "setting": "[1]; [3]", "value": 0.16, "unit": "µg·h/mL"},
      {"measurement": "Cmax", "setting": "[1]; [4]", "value": "0.0959 to 0.111", "unit": "µg/mL"},
      {"measurement": "AUC", "setting": "[1]; [4]", "value": "0.712 to 0.775", "unit": "µg·h/mL"},
      {"measurement": "Cmax", "setting": "[1]; [5]", "value": 0.0938, "unit": "µg/mL"},
      {"measurement": "AUC", "setting": "[1]; [5]", "value": 0.468, "unit": "µg·h/mL"},
      {"measurement": "Cmax", "setting": "[1]; [6]", "value": 0.138, "unit": "µg/mL"},
      {"measurement": "AUC", "setting": "[1]; [6]", "value": 0.934, "unit": "µg·h/mL"},
      {"measurement": "Cmax", "setting": "[1]; [7]", "value": 0.0786, "unit": "µg/mL"},
      {"measurement": "AUC", "setting": "[1]; [7]", "value": 0.512, "unit": "µg·h/mL"},
      {"measurement": "Cmax", "setting": "[1]; [8]", "value": 0.106, "unit": "µg/mL"},
      {"measurement": "AUC", "setting": "[1]; [8]", "value": 0.904, "unit": "µg·h/mL"},
      {"measurement": "Cmax", "setting": "[1]; [9]", "value": 0.119, "unit": "µg/mL"},
      {"measurement": "AUC", "setting": "[1]; [9]", "value": 0.677, "unit": "µg·h/mL"},
      {"measurement": "Cmax", "setting": "[1]; [10]", "value": 0.168, "unit": "µg/mL"},
      {"measurement": "AUC", "setting": "[1]; [10]", "value": 1.23, "unit": "µg·h/mL"},
      {"measurement": "Cmax", "setting": "[1]; [11]", "value": "0.0835 to 0.148", "unit": "µg/mL"},
      {"measurement": "AUC", "setting": "[1]; [11]", "value": "0.458 to 0.749", "unit": "µg·h/mL"},
      {"measurement": "Cmax", "setting": "[1]; [12]", "value": 0.14, "unit": "µg/mL"},
      {"measurement": "AUC", "setting": "[1]; [12]", "value": 0.751, "unit": "µg·h/mL"},
      {"measurement": "Cmax", "setting": "[1]; [13]", "value": 0.165, "unit": "µg/mL"},
      {"measurement": "AUC", "setting": "[1]; [13]", "value": 0.466, "unit": "µg·h/mL"},
      {"measurement": "mean trough total AZD3409 acid concentrations", "setting": "[1]; twice daily dosing levels", "value": "36.3 to 81.9", "unit": "ng/mL"},
      {"measurement": "plasma concentration at which 90% of the maximal biological effect is reached", "setting": "[2]; Emax model for lamin B", "value": "approximately 100 ng ml^−1"},
      {"measurement": "EC50", "setting": "[2]; Emax model, lamin B substrate, PBMC lysate, day 1, 2 h after intake, read-out: EC50 (plasma concentration at 50% of maximal FTase inhibition) (converted)", "value": 0.0188, "unit": "µM"},
      {"measurement": "Emax", "setting": "[2]; human, Emax model, lamin B substrate, PBMC lysate, day 1, 2 h after intake, vs AZD3409 acid plasma concentration, read-out: maximal effect (Emax), maximal FTase inhibition", "value": "49 ± 11", "unit": "%"},
      {"measurement": "share of the maximally achievable FTase inhibition at mean trough concentrations", "setting": "[2]; twice daily dosing levels, Emax model lamin B", "value": "at least 75%"}
    ]},
    {"smiles": "CSCC[C@H](NC(=O)c1cc(NC[C@@H]2C[C@H](SC(=O)c3cccnc3)CN2)ccc1CCc1ccc(F)cc1)C(=O)OC(C)C", "note": "[AZD3409]", "values": [
      {"measurement": "appearance of parent drug in blood", "setting": "[1]; after oral administration, rapidly metabolised in the gut and plasma to AZD3409 ester", "value": "does not appear in the blood"},
      {"measurement": "degree of FTase inhibition in PBMCs after intake vs prior to intake", "setting": "[2]; each day, lamin B and K-Ras substrates, mixed effects model", "value": "significantly higher than prior to intake"}
    ]}
  ]
}
